Where two headings read alike, the source gives them in different places.
Tests used:
P. falciparum 3D7 = test: Drug sensitivity assay, 72 h, PfLDH-based; type: cell-based; details: Plasmodium falciparum, 3D7; Figure 6b; read-out: Growth inhibition EC50, 3D7
Method: The P. falciparum 3D7 strain was cultured, as described previously, in 3% hematocrit type A human red blood cells (RBCs) in RPMI1640 medium (Invitrogen; San Diego, CA, USA) supplemented with 25 mM sodium hydrogen biocarbonate, 10 μg/mL hypoxanthine, 40 μg/mL gentamicin sulfate, and 0.5% (w/v) Albumax II (Invitrogen) (“complete medium”). Cultures were maintained in a MG-70M multi-gas incubator (Taitec) under the conditions of 5% O2, 5% CO2, and 90% N2 at 37 °C. The medium was replaced daily. Parasitemia was measured by thin blood smears stained with Giemsa. In our previous study, we generated mutant P. falciparum strains expressing either disrupted or full-length versions of the flavoprotein (Fp) subunit (encoded by the Pfsdha gene). Both strains were cultured in complete medium at 3% hematocrit supplemented with 5 nM WR99210 (Jacobus Pharmaceuticals; Plainsboro, NJ, USA). The experiments using human RBCs were performed under the guidelines of Research Ethics Committee of the Faculty of Medicine of the University of Tokyo and Institutional Review Board (IRB) of Nagasaki University (Permission nos. 10050 and no. 19, respectively). Human RBCs were obtained from The Japanese Red Cross Society. The synchronization of parasite cultures was performed by treating with 5% (w/v) sorbitol for 10 min [77].
(§1) Synchronized ring-form parasites (0.3% parasitemia) were prepared in complete medium containing different concentration of various compounds (at a fixed final DMSO concentration of 0.1% (v/v)) and distributed to 96-well plates at 100 μL/well. After 72 h of incubation, parasite growth was monitored by the previously described lactate dehydrogenase (PfLDH)-based assay method; plates were read using a SpectraMax® Paradigm spectrophotometer (Molecular Devices, Inc.; San Jose, CA, USA). EC50 values were calculated using Prism® ver.6.01 (GraphPad; San Diego, CA, USA). Values are presented as the means of three independent experiments.

P. falciparum 3D7-yDHODH = test: Growth inhibition of yeast DHODH-expressing strain; type: cell-based; details: Plasmodium falciparum, 3D7, read-out: Growth inhibition EC50, 3D7-yDHODH
Method: P. falciparum 3D7-yDHODH was prepared and maintained as described previously. P. falciparum Dd2, and Dd2-derived mutant strains were kindly provided by David A. Fidock, and maintained at Nagasaki University essentially as described in reference, except without supplementation with WR99210.
as §1

[1] = system: Plasmodium spp. complex II; details: cited from earlier work; for Effect on Plasmodium mitochondrial complex II: classical ubiquinone-site inhibitors, ref [30], [14]
Mammal complex II = details: read-out: Complex II IC50, Mammal, cited from earlier work
[2] = system: Plasmodium spp. complex II; test: Plasmodium spp. complex II inhibition (literature values); type: biochemical; details: ratio between mammalian and Plasmodium complex II IC50s
Excerpt: Table 1 Selectivity of classical complex II inhibitor against Plasmodium spp. and mammal complex II. | column: Selectivity ^a

SMILES: O=C1C(O)=C([C@H]2CC[C@H](c3ccc(Cl)cc3)CC2)C(=O)c2ccccc21 [Atovaquone]
- EC50 (P. falciparum 3D7): 0.00056 µM
- EC50 (P. falciparum 3D7-yDHODH): > 0.1 µM

SMILES: COc1[nH]c(=O)c(C(=O)[C@@H](C)C[C@H](C)[C@@H](Cl)CCl)c(O)c1OC [Atpenin A5]
- Effect on Plasmodium mitochondrial complex II [1]: ineffective
- IC50 ([1]; ref Kawahara et al. [14]): 4.6 ± 0.2 µM
- IC50 (Mammal complex II; ref Miyadera et al. [29]): 0.004 µM
- Selectivity [2]: 0.00087

SMILES: CC1=C(C(=O)Nc2ccccc2)SCCO1 [Carboxin]
- Effect on Plasmodium mitochondrial complex II [1]: ineffective
- IC50 ([1]; ref Kawahara et al. [14]): 3.6 ± 1 µM
- IC50 (Mammal complex II; ref Miyadera et al. [29]): 1 µM
- Selectivity [2]: 0.28

SMILES: O=C(O)CC(=O)O [Malonate]
- IC50 ([1]; ref Suraveratum et al. [30]): 13.2 ± 0.49 µM
- IC50 (Mammal complex II; ref Mogi et al. [34]): 3.4 µM
- Selectivity [2]: 0.26

SMILES: O=C(CC(=O)C(F)(F)F)c1cccs1 [TTFA, 2-thenoyltrifluoroacetone]
- Effect on Plasmodium mitochondrial complex II [1]: ineffective
- IC50 ([1]; ref Suraveratum et al. [30]): > 50 µM
- IC50 (Mammal complex II; ref Miyadera et al. [29]): 5.4 µM
- Selectivity [2]: <0.11

Reference: publication PMC9319939, “Siccanin Is a Dual-Target Inhibitor of Plasmodium falciparum Mitochondrial Complex II and Complex III” (Pharmaceuticals, 2022)
